# According to patent US12077503B2, “Substituted cyclic amides and their use as herbicides” (FMC CORPORATION, priority 2015, dated 2024):
# How the values were obtained:
# Format in all cases: in vivo
# [1] = system: ragweed (common ragweed, Ambrosia elatior); experiment: Test C preemergence; conditions: scale 0 to 100, 0 no effect, 100 complete control
# Description: Seeds of plant species selected from blackgrass (Alopecurus myosuroides), ryegrass, Italian (Italian ryegrass, Lolium multiflorum), wheat (winter wheat, Triticum aestivum), Galium (catchweed bedstraw, Galium aparine), corn (Zea mays), crabgrass, large (large crabgrass, Digitaria sanguinalis), foxtail, giant (giant foxtail, Setaria faberii), johnsongrass (Sorghum halepense), lambsquarters (Chenopodium album), morningglory (Ipomoea coccinea), nutsedge, yellow (yellow nutsedge, Cyperus esculentus), pigweed (Amaranthus retroflexus), ragweed (common ragweed, Ambrosia elatior), soybean (Glycine max), barnyardgrass (Echinochloa crus-galli), oilseed rape (Brassica napus), waterhemp (common waterhemp, Amaranthus rudis) and velvetleaf (Abutilon theophrasti) were planted into a blend of loam soil and sand and treated preemergence with test chemicals formulated in a non-phytotoxic solvent mixture which included a surfactant.
# At the same time, plants selected from these crop and weed species and also Kochia (Kochia scoparia), oat, wild (wild oat, Avena fatua), and chickweed (common chickweed, Stellaria media) were planted in pots containing Sunshine Redi-Earth® planting medium comprising spaghnum peat moss, vermiculite, starter nutrients and dolomitic limestone and treated with postemergence applications of test chemicals formulated in the same manner. Plants ranged in height from 2 to 18 cm (1- to 4-leaf stage) for postemergence treatments. Treated plants and controls were maintained in a greenhouse for 13 to 15 d, after which time all species were compared to controls and visually evaluated. Plant response ratings, summarized in Table C, are based on a scale of 0 to 100 where 0 is no effect and 100 is complete control. A dash (-) response means no test result.
# [2] = system: barnyardgrass (Echinochloa crus-galli); experiment: Test A postemergence
# In short: (§1)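 Ratings of 0 (no effect) to 100 (complete control) come from visual comparison with untreated controls roughly 10 d after treatment. Test chemicals, formulated in a non-phytotoxic solvent mixture with surfactant, were applied either as a preemergence directed soil spray on seeded soil or postemergence to one- to two-leaf plants 2 to 10 cm tall.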
# [3] = system: ryegrass, Italian (Italian ryegrass, Lolium multiflorum); experiment: Test A postemergence
# In short: as §1
# [4] = system: wheat (Triticum aestivum); experiment: Test A postemergence
# In short: as §1
# [5] = system: Galium (catchweed bedstraw, Galium aparine); experiment: Test A postemergence
# In short: as §1
# [6] = system: blackgrass (Alopecurus myosuroides); experiment: Test A postemergence
# In short: as §1
# [7] = system: giant foxtail (Setaria faberii); experiment: Test A postemergence
# In short: as §1
# corn (Zea mays) = experiment: Test A postemergence
# In short: as §1
# Kochia (Kochia scoparia) [8] = experiment: Test A postemergence
# In short: as §1
# [9] = system: pigweed (Amaranthus retroflexus); experiment: Test A postemergence
# In short: as §1
# [10] = system: ragweed (common ragweed, Ambrosia elatior); experiment: Test A postemergence
# In short: as §1
# [11] = system: barnyardgrass (Echinochloa crus-galli); experiment: Test B flooded paddy test; conditions: Flood, 250 g ai/ha
# In short: (§2)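 Rating scale 0–100 (visual, vs untreated controls) after a 13–15 d greenhouse period; application to the flood layer, 3 cm above soil and maintained; plants at 2-leaf stage when treated.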
# [12] = system: ducksalad (Heteranthera limosa); experiment: Test B flooded paddy test; conditions: Flood, 250 g ai/ha
# In short: as §2
# [13] = system: sedge, umbrella (small-flower umbrella sedge, Cyperus difformis); experiment: Test B flooded paddy test; conditions: Flood, 250 g ai/ha, 0 to 100 scale where 0 is no effect and 100 is complete control
# In short: as §2
# rice (Oryra sativa) = experiment: Test B flooded paddy test; conditions: Flood, 250 g ai/ha
# In short: as §2
# [14] = system: barnyardgrass (Echinochloa crus-galli); experiment: Test A preemergence
# In short: as §1
# [15] = system: ryegrass, Italian (Italian ryegrass, Lolium multiflorum); experiment: Test A preemergence
# In short: as §1
# [16] = system: giant foxtail (Setaria faberii); experiment: Test A preemergence
# In short: as §1
# Kochia (Kochia scoparia) [17] = experiment: Test A preemergence
# In short: as §1
# [18] = system: pigweed (Amaranthus retroflexus); experiment: Test A preemergence
# [19] = system: ragweed (common ragweed, Ambrosia elatior); experiment: Test A preemergence
# In short: as §1
# [20] = 125 g ai/ha, postemergence, visual injury rating on 0 to 100 scale (0 no effect, 100 complete control), approx. 10 d
# [21] = 500 g ai/ha, postemergence, 0 to 100 scale, 0 no effect, 100 complete control
# [22] = 0 to 100 scale where 0 is no effect and 100 is complete control, 13 to 15 d
# [23] = 125 g ai/ha, preemergence, 0 to 100 scale (0 no effect, 100 complete control)
# [24] = Preemergence, 500 g ai/ha, visual injury approx. 10 d
compound,measurement,setting,value
CN1CC(c2cccc(OC(F)(F)C(F)F)c2)C(C(=O)Nc2ccccc2C(F)(F)F)C1=O (stereo not drawn) [Compound 431],"Plant response rating, Ragweed",[1]; 31 g ai/ha,50
same,"Plant response rating, Ragweed",[1]; 62 g ai/ha,40
same,"Plant response rating, Ragweed",[1]; 125 g ai/ha,40
same,"Plant response rating, Ragweed",[1]; 250 g ai/ha,60
same,Barnyardgrass plant response rating,[2]; [20],80
same,"Plant response rating, Barnyardgrass",[2]; [21],90
same,"Ryegrass, Italian plant response rating",[3]; [20],60
same,"Plant response rating, Ryegrass, Italian",[3]; [21],40
same,Wheat plant response rating,[4]; [20],40
same,"Plant response rating, Wheat",[4]; [21],60
same,Galium plant response rating,[5]; [20],60
same,"Plant response rating, Galium",[5]; [21],60
same,Blackgrass plant response rating,[6]; [20],60
same,"Plant response rating, Blackgrass",[6]; [21],60
same,"Foxtail, Giant plant response rating",[7]; [20],80
same,"Plant response rating, Foxtail, Giant",[7]; [21],90
same,Corn plant response rating,corn (Zea mays); [20],60
same,"Plant response rating, Corn",corn (Zea mays); [21],70
same,Kochia plant response rating,Kochia (Kochia scoparia) [8]; [20],40
same,"Plant response rating, Kochia",Kochia (Kochia scoparia) [8]; [21],50
same,Pigweed plant response rating,[9]; [20],50
same,"Plant response rating, Pigweed",[9]; [21],60
same,Ragweed plant response rating,[10]; [20],20
same,"Plant response rating, Ragweed",[10]; [21],60
same,"Plant response rating, Barnyardgrass",[11]; [22],40
same,"Plant response rating, Ducksalad",[12]; [22],100
same,"Plant response rating, Sedge, Umbrella",[13]; 13 to 15 d,0
same,"Plant response rating, Rice",rice (Oryra sativa); [22],25
same,"Plant response rating, Barnyardgrass",[14]; [23],90
same,"Barnyardgrass plant response rating (0 to 100 scale, 0 is no effect, 100 is complete control)",[14]; [24],90
same,"Plant response rating, Ryegrass, Italian",[15]; [23],70
same,"Ryegrass, Italian plant response rating (0 to 100 scale, 0 is no effect, 100 is complete control)",[15]; [24],70
same,"Plant response rating, Foxtail, Giant",[16]; [23],90
same,"Foxtail, Giant plant response rating (0 to 100 scale, 0 is no effect, 100 is complete control)",[16]; [24],100
same,"Plant response rating, Kochia",Kochia (Kochia scoparia) [17]; [23],30
same,"Kochia plant response rating (0 to 100 scale, 0 is no effect, 100 is complete control)",Kochia (Kochia scoparia) [17]; [24],70
same,"Plant response rating, Pigweed",[18]; [23],70
same,"Pigweed plant response rating (0 to 100 scale, 0 is no effect, 100 is complete control)",[18]; [24],90
same,"Plant response rating, Ragweed",[19]; [23],40
same,"Ragweed plant response rating (0 to 100 scale, 0 is no effect, 100 is complete control)",[19]; [24],70
CN1C[C@H](c2cc(F)cc(F)c2)[C@@H](C(=O)Nc2ccc(O)cc2F)C1=O [Compound 985],pest or weed control at 125 g/ha,"[2]; Echinochloa crus-galli, post-emergence, 240 h, 125 g ai/ha, Postemergence, visual injury after approximately 10 d, 0 to 100 scale where 0 is no effect and 100 is complete control, read-out: Plant response rating, Barnyardgrass",0%
same,pest or weed control at 125 g/ha,"[3]; Lolium multiflorum, post-emergence, 240 h, 125 g ai/ha, Postemergence, visual injury after approximately 10 d, 0 to 100 scale where 0 is no effect and 100 is complete control, read-out: Plant response rating, Ryegrass, Italian",0%
same,plant injury at 125 g/ha,"[4]; Triticum aestivum, post-emergence, 240 h, 125 g ai/ha, Postemergence, visual injury after approximately 10 d, 0 to 100 scale where 0 is no effect and 100 is complete control, read-out: Plant response rating, Wheat",0%
same,pest or weed control at 125 g/ha,"[5]; Galium, post-emergence, 240 h, 125 g ai/ha, Postemergence, visual injury after approximately 10 d, 0 to 100 scale where 0 is no effect and 100 is complete control, read-out: Plant response rating, Galium",0%
same,pest or weed control at 125 g/ha,"[6]; Alopecurus myosuroides, post-emergence, 240 h, 125 g ai/ha, Postemergence, visual injury after approximately 10 d, 0 to 100 scale where 0 is no effect and 100 is complete control, read-out: Plant response rating, Blackgrass",0%
same,pest or weed control at 125 g/ha,"[7]; Setaria faberi, post-emergence, 240 h, 125 g ai/ha, Postemergence, visual injury after approximately 10 d, 0 to 100 scale where 0 is no effect and 100 is complete control, read-out: Plant response rating, Foxtail, Giant",0%
same,"Corn plant response rating (crop injury, 0 = no effect, 100 = complete kill) at 125 g/ha","corn (Zea mays); Zea mays, post-emergence, 240 h, 125 g ai/ha, Postemergence, visual injury after approximately 10 d, 0 to 100 scale where 0 is no effect and 100 is complete control",0%
same,pest or weed control at 125 g/ha,"Kochia (Kochia scoparia) [8]; Bassia scoparia, post-emergence, 240 h, 125 g ai/ha, Postemergence, visual injury after approximately 10 d, 0 to 100 scale where 0 is no effect and 100 is complete control, read-out: Plant response rating, Kochia",0%
same,pest or weed control at 125 g/ha,"[9]; Amaranthus retroflexus, post-emergence, 240 h, 125 g ai/ha, Postemergence, visual injury after approximately 10 d, 0 to 100 scale where 0 is no effect and 100 is complete control, read-out: Plant response rating, Pigweed",0%
same,pest or weed control at 125 g/ha,"[10]; Ambrosia artemisiifolia, post-emergence, 240 h, 125 g ai/ha, Postemergence, visual injury after approximately 10 d, 0 to 100 scale where 0 is no effect and 100 is complete control, read-out: Plant response rating, Ragweed",0%
same,pest or weed control at 250 g/ha,"[11]; Echinochloa crus-galli, scale of 0 to 100 where 0 is no effect and 100 is complete control, read-out: Barnyardgrass plant response rating",0%
same,pest or weed control at 250 g/ha,"[12]; Heteranthera limosa, scale of 0 to 100 where 0 is no effect and 100 is complete control, read-out: Ducksalad plant response rating",40%
same,pest or weed control at 250 g/ha,"[13]; Cyperus difformis, read-out: Sedge, Umbrella plant response rating",0%
same,pest or weed control at 250 g/ha,"rice (Oryra sativa); Oryza sativa, scale of 0 to 100 where 0 is no effect and 100 is complete control, read-out: Rice plant response rating",0%
same,pest or weed control at 125 g/ha,"[14]; Echinochloa crus-galli, pre-emergence, 240 h, 125 g ai/ha, Preemergence, visual injury rating after approximately 10 d, read-out: Barnyardgrass plant response rating (0 to 100 scale, 0 is no effect, 100 is complete control)",0%
same,pest or weed control at 500 g/ha,"[14]; Echinochloa crus-galli, pre-emergence, 240 h, 500 g ai/ha, preemergence, visual injury rating about 10 d after treatment, 0 to 100 scale (0 no effect, 100 complete control), read-out: Barnyardgrass plant response rating",0%
same,pest or weed control at 125 g/ha,"[15]; Lolium multiflorum, pre-emergence, 240 h, 125 g ai/ha, Preemergence, visual injury rating after approximately 10 d, read-out: Ryegrass, Italian plant response rating (0 to 100 scale, 0 is no effect, 100 is complete control)",0%
same,pest or weed control at 500 g/ha,"[15]; Lolium multiflorum, pre-emergence, 240 h, 500 g ai/ha, preemergence, visual injury rating about 10 d after treatment, 0 to 100 scale (0 no effect, 100 complete control), read-out: Ryegrass, Italian plant response rating",0%
same,pest or weed control at 125 g/ha,"[16]; Setaria faberi, pre-emergence, 240 h, 125 g ai/ha, Preemergence, visual injury rating after approximately 10 d, read-out: Foxtail, Giant plant response rating (0 to 100 scale, 0 is no effect, 100 is complete control)",0%
same,pest or weed control at 500 g/ha,"[16]; Setaria faberi, pre-emergence, 240 h, 500 g ai/ha, preemergence, visual injury rating about 10 d after treatment, 0 to 100 scale (0 no effect, 100 complete control), read-out: Foxtail, Giant plant response rating",0%
same,pest or weed control at 125 g/ha,"Kochia (Kochia scoparia) [17]; Bassia scoparia, pre-emergence, 240 h, 125 g ai/ha, Preemergence, visual injury rating after approximately 10 d, read-out: Kochia plant response rating (0 to 100 scale, 0 is no effect, 100 is complete control)",0%
same,pest or weed control at 500 g/ha,"Kochia (Kochia scoparia) [17]; Bassia scoparia, pre-emergence, 240 h, 500 g ai/ha, preemergence, visual injury rating about 10 d after treatment, 0 to 100 scale (0 no effect, 100 complete control), read-out: Kochia plant response rating",0%
same,pest or weed control at 125 g/ha,"[18]; Amaranthus retroflexus, pre-emergence, 240 h, 125 g ai/ha, Preemergence, visual injury rating after approximately 10 d, read-out: Pigweed plant response rating (0 to 100 scale, 0 is no effect, 100 is complete control)",0%
same,pest or weed control at 500 g/ha,"[18]; Amaranthus retroflexus, pre-emergence, 240 h, 500 g ai/ha, preemergence, visual injury rating about 10 d after treatment, 0 to 100 scale (0 no effect, 100 complete control), read-out: Pigweed plant response rating",0%
same,pest or weed control at 125 g/ha,"[19]; Ambrosia artemisiifolia, pre-emergence, 240 h, 125 g ai/ha, Preemergence, visual injury rating after approximately 10 d, read-out: Ragweed plant response rating (0 to 100 scale, 0 is no effect, 100 is complete control)",0%
same,pest or weed control at 500 g/ha,"[19]; Ambrosia artemisiifolia, pre-emergence, 240 h, 500 g ai/ha, preemergence, visual injury rating about 10 d after treatment, 0 to 100 scale (0 no effect, 100 complete control), read-out: Ragweed plant response rating",0%
